Test results reported in ChEMBL document CHEMBL3885861, “Open TG-GATES”.

Species: Rattus norvegicus
Assay: Open TG-GATES - Regimen: Daily Repeat
Assay type: toxicity, organism-based, Sprague-Dawley
Set-up: regimen Daily Repeat, gender Male, age 6 weeks
Details: in vivo, po, route gavage; for APTT / Bas / Eos / Fbg / Ht / MCH / MCHC / MCV / Mono / Neu / PT / RBC / Ret: tissue Blood; for KIDNEY_L / KIDNEY_R / KIDNEY_TOTAL: tissue Kidney; for ALP / ALT / AST / BUN / CRE / Ca / Cl / DBIL / GLC / IP / K / LDH / Na / PL / RALB / TBIL / TC / TG / TP / gamma-GTP: tissue Plasma
[1] = 0 mg/kg, 72 h, dose level Control, time 3 day
[2] = 0 mg/kg, […], dose level Control, time 7 day
[3] = 0 mg/kg, […], dose level Control, time 14 day
[4] = 0 mg/kg, […], dose level Control, time 28 day
[5] = 60 mg/kg, 72 h, dose level Low, time 3 day
[6] = 60 mg/kg, […], dose level Low, time 7 day
[7] = 60 mg/kg, […], dose level Low, time 14 day
[8] = 60 mg/kg, […], dose level Low, time 28 day

SMILES: CC(=O)Nc1nnc(S(N)(=O)=O)s1 [ACETAZOLAMIDE]
- TERMINAL_BW [1]: 229 g
- APTT [1]: 21.2 s
- Bas [1]: 0%
- Eos [1]: 1%
- Fbg [1]: 302.2 mg/dL
- Ht [1]: 39.4%
- MCH [1]: 21.3 pg
- MCHC [1]: 34%
- MCV [1]: 62.8 fL
- Mono [1]: 3%
- Neu [1]: 16%
- PT [1]: 17 s
- RBC [1]: 628.2 x10_4/ul
- Ret [1]: 6.9%
- KIDNEY_L [1]: 1 g
- KIDNEY_R [1]: 1 g
- KIDNEY_TOTAL [1]: 2 g
- ALP [1]: 1759.2 IU/L
- ALT [1]: 45.6 IU/L
- AST [1]: 81.2 IU/L
- BUN [1]: 17.8 mg/dL
- CRE [1]: 0.1 mg/dL
- Ca [1]: 10.8 mg/dL
- Cl [1]: 106.6 meq/L
- DBIL [1]: 0 mg/dL
- GLC [1]: 193.6 mg/dL
- IP [1]: 7.5 mg/dL
- K [1]: 4.3 meq/L
- LDH [1]: 208.8 IU/L
- Na [1]: 142 meq/L
- PL [1]: 135 mg/dL
- RALB [1]: 3.1 g/dL
- TBIL [1]: 0.008 mg/dL
- TC [1]: 71.2 mg/dL
- TG [1]: 86.2 mg/dL
- TP [1]: 5.5 g/dL
- gamma-GTP [1]: 1.8 IU/L
- TERMINAL_BW [2]: 260.7 g
- TERMINAL_BW [3]: 306.6 g
- TERMINAL_BW [4]: 366.7 g
- APTT [2]: 21.8 s
- Bas [2]: 0%
- Eos [2]: 0.8%
- Ht [2]: 39.7%
- MCH [2]: 21.9 pg
- MCHC [2]: 35.8%
- MCV [2]: 61.1 fL
- Mono [2]: 2.4%
- Neu [2]: 11.8%
- PT [2]: 16.1 s
- RBC [2]: 650.4 x10_4/ul
- Ret [2]: 5.7%
- APTT [3]: 23.3 s
- Bas [3]: 0%
- Eos [3]: 0.8%
- Fbg [3]: 297.2 mg/dL
- Ht [3]: 40%
- MCH [3]: 20.5 pg
- MCHC [3]: 35.3%
- MCV [3]: 58.2 fL
- Mono [3]: 2.2%
- Neu [3]: 14%
- PT [3]: 16.5 s
- RBC [3]: 688.2 x10_4/ul
- Ret [3]: 5.1%
- APTT [4]: 25.9 s
- Bas [4]: 0%
- Eos [4]: 0.6%
- Fbg [4]: 316 mg/dL
- Ht [4]: 44%
- MCH [4]: 19 pg
- MCHC [4]: 34.3%
- MCV [4]: 55.6 fL
- Mono [4]: 2%
- Neu [4]: 12.4%
- RBC [4]: 791.4 x10_4/ul
- Ret [4]: 2.8%
- KIDNEY_L [2]: 1 g
- KIDNEY_R [2]: 1.1 g
- KIDNEY_TOTAL [2]: 2.1 g
- KIDNEY_L [3]: 1.2 g
- KIDNEY_R [3]: 1.2 g
- KIDNEY_TOTAL [3]: 2.4 g
- KIDNEY_L [4]: 1.3 g
- KIDNEY_R [4]: 1.3 g
- KIDNEY_TOTAL [4]: 2.6 g
- ALP [2]: 1905.2 IU/L
- ALT [2]: 37.6 IU/L
- AST [2]: 72.6 IU/L
- BUN [2]: 22 mg/dL
- CRE [2]: 0.2 mg/dL
- Ca [2]: 10.8 mg/dL
- Cl [2]: 106.4 meq/L
- DBIL [2]: 0 mg/dL
- GLC [2]: 203 mg/dL
- IP [2]: 6.9 mg/dL
- K [2]: 4.7 meq/L
- LDH [2]: 193.6 IU/L
- Na [2]: 142.2 meq/L
- PL [2]: 132.6 mg/dL
- RALB [2]: 3.1 g/dL
- TBIL [2]: 0.002 mg/dL
- TC [2]: 63.2 mg/dL
- TG [2]: 101.8 mg/dL
- TP [2]: 5.3 g/dL
- gamma-GTP [2]: 1.6 IU/L
- ALP [3]: 1570.4 IU/L
- AST [3]: 67.2 IU/L
- BUN [3]: 19.8 mg/dL
- CRE [3]: 0.2 mg/dL
- Ca [3]: 10.6 mg/dL
- DBIL [3]: 0 mg/dL
- GLC [3]: 197.6 mg/dL
- IP [3]: 7.4 mg/dL
- K [3]: 4.3 meq/L
- LDH [3]: 171.4 IU/L
- Na [3]: 143.6 meq/L
- PL [3]: 142.4 mg/dL
- RALB [3]: 3.1 g/dL
- TBIL [3]: 0.002 mg/dL
- TC [3]: 67 mg/dL
- TP [3]: 5.7 g/dL
- gamma-GTP [3]: 2.4 IU/L
- ALP [4]: 1140.2 IU/L
- ALT [4]: 40.6 IU/L
- AST [4]: 63.8 IU/L
- BUN [4]: 18.8 mg/dL
- CRE [4]: 0.2 mg/dL
- Cl [4]: 105.4 meq/L
- DBIL [4]: 0 mg/dL
- GLC [4]: 207.8 mg/dL
- IP [4]: 6.2 mg/dL
- K [4]: 4.1 meq/L
- LDH [4]: 138.8 IU/L
- Na [4]: 142.6 meq/L
- RALB [4]: 3.3 g/dL
- TBIL [4]: 0.004 mg/dL
- TC [4]: 69.8 mg/dL
- TG [4]: 178.4 mg/dL
- TP [4]: 6.1 g/dL
- gamma-GTP [4]: 2.2 IU/L
- TERMINAL_BW [5]: 226.3 g
- APTT [5]: 20.3 s
- Bas [5]: 0%
- Eos [5]: 1%
- Fbg [5]: 272.8 mg/dL
- Ht [5]: 39.2%
- MCHC [5]: 34%
- MCV [5]: 60.6 fL
- Mono [5]: 2.6%
- Neu [5]: 15.4%
- PT [5]: 16.8 s
- RBC [5]: 648.4 x10_4/ul
- Ret [5]: 5.3%
- KIDNEY_L [5]: 1 g
- KIDNEY_R [5]: 1 g
- KIDNEY_TOTAL [5]: 2 g
- ALP [5]: 1702 IU/L
- ALT [5]: 42.2 IU/L
- AST [5]: 67.4 IU/L
- BUN [5]: 17 mg/dL
- CRE [5]: 0.2 mg/dL
- Ca [5]: 10.6 mg/dL
- Cl [5]: 106.4 meq/L
- DBIL [5]: 0 mg/dL
- GLC [5]: 185.4 mg/dL
- IP [5]: 7.3 mg/dL
- K [5]: 4.1 meq/L
- LDH [5]: 188.6 IU/L
- Na [5]: 142.8 meq/L
- RALB [5]: 2.9 g/dL
- TBIL [5]: 0 mg/dL
- TC [5]: 73.6 mg/dL
- TG [5]: 137.8 mg/dL
- TP [5]: 5.2 g/dL
- gamma-GTP [5]: 1.4 IU/L
- TERMINAL_BW [6]: 265.9 g
- TERMINAL_BW [7]: 293.1 g
- TERMINAL_BW [8]: 367.2 g
- APTT [6]: 20.2 s
- Bas [6]: 0%
- Eos [6]: 0.8%
- Fbg [6]: 299.4 mg/dL
- Ht [6]: 37%
- MCH [6]: 21.7 pg
- MCV [6]: 61 fL
- Mono [6]: 2.4%
- Neu [6]: 13.4%
- PT [6]: 16.1 s
- RBC [6]: 606.4 x10_4/ul
- Ret [6]: 6.9%
- APTT [7]: 22.7 s
- Bas [7]: 0%
- Eos [7]: 0.8%
- Fbg [7]: 302.4 mg/dL
- MCHC [7]: 35.9%
- MCV [7]: 57.5 fL
- Mono [7]: 2.2%
- Neu [7]: 12.8%
- RBC [7]: 687.6 x10_4/ul
- Ret [7]: 4.3%
- APTT [8]: 23.2 s
- Bas [8]: 0%
- Eos [8]: 1%
- Fbg [8]: 311 mg/dL
- Ht [8]: 42.3%
- MCH [8]: 19.2 pg
- MCHC [8]: 34.3%
- MCV [8]: 56 fL
- Mono [8]: 1.6%
- Neu [8]: 12%
- RBC [8]: 755.4 x10_4/ul
- Ret [8]: 2.9%
- KIDNEY_L [6]: 1.2 g
- KIDNEY_R [6]: 1.3 g
- KIDNEY_TOTAL [6]: 2.5 g
- KIDNEY_L [7]: 1.2 g
- KIDNEY_R [7]: 1.2 g
- KIDNEY_TOTAL [7]: 2.4 g
- KIDNEY_L [8]: 1.4 g
- KIDNEY_R [8]: 1.5 g
- KIDNEY_TOTAL [8]: 2.9 g
- ALP [6]: 1603.6 IU/L
- ALT [6]: 40.6 IU/L
- AST [6]: 69 IU/L
- BUN [6]: 19.6 mg/dL
- CRE [6]: 0.1 mg/dL
- Ca [6]: 10.6 mg/dL
- Cl [6]: 107.4 meq/L
- DBIL [6]: 0 mg/dL
- GLC [6]: 192.2 mg/dL
- IP [6]: 7.2 mg/dL
- K [6]: 4.2 meq/L
- LDH [6]: 140.4 IU/L
- Na [6]: 143.8 meq/L
- PL [6]: 139.6 mg/dL
- RALB [6]: 3 g/dL
- TBIL [6]: 0.002 mg/dL
- TC [6]: 71.8 mg/dL
- TG [6]: 127 mg/dL
- TP [6]: 5.2 g/dL
- gamma-GTP [6]: 1.8 IU/L
- ALP [7]: 1453.4 IU/L
- ALT [7]: 41.2 IU/L
- AST [7]: 65 IU/L
- BUN [7]: 17 mg/dL
- CRE [7]: 0.2 mg/dL
- Ca [7]: 10.5 mg/dL
- Cl [7]: 105.8 meq/L
- DBIL [7]: 0 mg/dL
- GLC [7]: 185.2 mg/dL
- IP [7]: 6.7 mg/dL
- K [7]: 3.8 meq/L
- LDH [7]: 123.6 IU/L
- Na [7]: 144 meq/L
- PL [7]: 140.8 mg/dL
- RALB [7]: 3 g/dL
- TBIL [7]: 0.002 mg/dL
- TC [7]: 65.8 mg/dL
- TG [7]: 152.6 mg/dL
- TP [7]: 5.5 g/dL
- gamma-GTP [7]: 2 IU/L
- ALP [8]: 1253 IU/L
- ALT [8]: 41 IU/L
- AST [8]: 63 IU/L
- BUN [8]: 19 mg/dL
- CRE [8]: 0.2 mg/dL
- Ca [8]: 10.5 mg/dL
- Cl [8]: 106.8 meq/L
- DBIL [8]: 0 mg/dL
- GLC [8]: 184.2 mg/dL
- IP [8]: 6.2 mg/dL
- K [8]: 4 meq/L
- LDH [8]: 129 IU/L
- Na [8]: 143 meq/L
- PL [8]: 142.8 mg/dL
- RALB [8]: 3.1 g/dL
- TBIL [8]: 0.002 mg/dL
- TC [8]: 70.8 mg/dL
- TG [8]: 159.2 mg/dL
- TP [8]: 5.9 g/dL
- gamma-GTP [8]: 2.2 IU/L
- TERMINAL_BW (200 mg/kg, 72 h, dose level Middle, time 3 day): 215.5 g
